We go through 79 compounds from the METLIN SMRT retention time set (Domingo-Almenara et al. 2019).

Structures are written as SMILES.

A short description of this data set: gradient 5% acetonitrile 3 min, to 50% in 2 min, to 85% in 15 min, held 3 min, 100 µL/min. To be noted: column: Zorbax Extend-C18 2.1 x 50 mm; eluents: water / acetonitrile, 0.1% formic acid. An outline of the steps: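 Mixtures of ~100 pure standards were chromatographed on a Zorbax Extend-C18 column (2.1 × 50 mm, 1.8 μm) at 100 μL/min using water and acetonitrile, each with 0.1% formic acid. Detection used a quadrupole time-of-flight mass spectrometer in positive and negative ionization mode, and data collection spanned 3 months. Retention time was obtained from adduct peaks picked computationally and each checked manually.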
Consider `Cc1ccc(NC(=O)N2C[C@@H](F)C[C@H]2C(=O)N2CCc3ccccc3C2)c(Cl)c1`, for which the RP-LC retention time worked out at 831 s. The same measure for `CCCn1cc(CCNS(=O)(=O)c2ccc(F)c(F)c2)c2cccnc21`: 884 s; for `O=C(NCCc1c[nH]c2ccccc12)C1CC(=O)N(CCc2ccccc2)C1` (centres undefined): 758 s. On to `O=C(NCCCN1CCc2ccccc2C1)C1CCCN(S(=O)(=O)N2CCCCCC2)C1` (centres undefined), for which the RP-LC retention time is 682 s. Compound `CCC1CCCCN1C(=O)c1ccc(-c2nnc3ccc(NC(=O)C4CCC4)cn23)cc1` (centres undefined) gave an RP-LC retention time of 870 s. The same measure for `CCN1C(=O)C2(CCN(C(=O)NCCC(C)C)CC2)c2ccccc21`: 854 s; for `COc1ccc(-c2nc3cc(C)ccn3c2NC(=O)c2ccc([N+](=O)[O-])cc2)cc1`: 691 s. The same measure for `COCCNCc1c(C(=O)O)c(C)n(Cc2ccc(Cl)cc2)c1C`: 704 s; for `CCc1nc(-c2cn(Cc3ccc(F)cc3)nn2)no1`: 822 s; for `Cc1ccc(S(=O)(=O)N2CCC(CCC(=O)NC3CCS(=O)(=O)C3)CC2)cc1` (centres undefined): 740 s. The same measure for `Cn1c(CCNC(=O)c2cn3ccccc3n2)nc2ccccc21`: 556 s. For `COc1ccccc1NC(=O)N1CCC(n2cnc3c(Cl)cccc3c2=O)CC1`, the RP-LC retention time turned out to be 830 s. The value for `O=C(NCc1ccc(Cl)cc1)C1CCN(c2cnc(N3CCCC3)nc2)CC1` was 712 s; that for `CS(=O)(=O)Nc1cccc(C2=NN(S(C)(=O)=O)C(c3cccc([N+](=O)[O-])c3)C2)c1` (centres undefined) was 740 s; that for `CCN1CCN(c2nc(-c3cccc(C)c3)nnc2C)CC1` was 575 s. The value for `O=C(CN1CCN(Cc2ccccc2)C1=O)NCc1ccc(F)cc1Cl` was 833 s. The value for `Cc1ccc(S(=O)(=O)NC2CCN(C(=O)C3CC(=O)N(C4CCCC4)C3)CC2)cc1` (centres undefined) was 727 s; that for `O=C(NC1CC1)[C@@H]1C[C@H](Oc2cccnc2)CN1C(=O)C1CC1` was 528 s; that for `CCc1ccc(-c2noc(Cn3c(=O)n(Cc4ccc(OC)cc4)c(=O)c4sccc43)n2)cc1` was 1190 s. As for `Cc1ccc(-n2ncc3c(=O)n(Cc4nc(-c5ccc(OC(C)C)cc5)no4)cnc32)cc1`, the RP-LC retention time was found to be 1200 s. `Cc1sc(NC(=O)COc2ccc(Cl)cc2)nc1-c1ccc2c(c1)N(C)C(=O)CO2` displayed an RP-LC retention time of 1040 s. As to `COc1ccc(CNC(=O)C2CCN(S(C)(=O)=O)c3ccccc3O2)cc1` (centres undefined), the RP-LC retention time was 810 s. The same measure for `COc1ccc(Nc2c(-c3ccc(SC)cc3)nc3cnccn23)cc1`: 908 s; for `CCOC(=O)c1[nH]c(C)c(CCC(=O)N2CCC(C(=O)NCCC3=CCCCC3)CC2)c1C`: 864 s. `COc1cc(C2CC(=O)N(CC(=O)N3CCCCC3)c3ccccc3S2)cc(OC)c1OC` (centres undefined) displayed an RP-LC retention time of 871 s. The value for `Cc1ccn2c(C(C)O)nnc2c1` (centres undefined) was 574 s. The same measure for `COc1ccc(CCC(=O)N2CCN(c3nccn3-c3cccc(Cl)c3)CC2)cc1`: 617 s; for `Cc1noc(C2CN(C(=O)Nc3ccc(C)c(F)c3)CC23CCOCC3)n1` (centres undefined): 776 s. `COc1cc(C(=O)Nc2nc(-c3ccc4c(c3)NC(=O)CO4)cs2)cc(OC)c1OC` had an RP-LC retention time of 824 s. The value for `Cc1ccn2cc(-c3cccc(S(=O)(=O)N4CC(C)CC(C)C4)c3)nc2c1` (centres undefined) was 784 s; that for `Cc1cccc(-c2nc(Cn3nnc(-c4nc(-c5ccccc5Br)no4)c3C)c(C)o2)c1` was 1310 s.

Turning to `CCOC(=O)Cc1c(C)nc2c(-c3cccc(Br)c3)cnn2c1C`, the RP-LC retention time turned out to be 1250 s. Regarding `CNC(=O)C1CCCN(S(C)(=O)=O)CCC(=O)NCC1` (centres undefined), the RP-LC retention time was found to be 539 s. The same measure for `O=C(Cn1ccc2sccc2c1=O)Nc1ccc(Cl)cc1`: 776 s; for `CC1CN(C(=O)c2cccc3c2-c2ccccc2C3=O)CC(C)O1` (centres undefined): 754 s; for `Cc1ccc(NC(=O)N2CC(c3nc(C)no3)C3(CCOCC3)C2)c(C)c1` (centres undefined): 731 s.

`CCOC(=O)c1cccc(NC(=O)Cn2ccc3ccc(-c4nnc(C)o4)cc32)c1` displayed an RP-LC retention time of 829 s. The value for `COc1ccccc1-c1noc(C2CCCN2C(=O)C2CCC2)n1` (centres undefined) was 831 s; that for `O=C(Cn1c(=O)c2cc(C3CC3)nn2c2ncccc21)NCc1ccccc1` was 727 s; that for `O=C(NCc1ccccn1)C1CCN(c2cnc(N3CCCC3)nc2)CC1` was 547 s. The value for `COC(=O)c1ccc(NC(=O)Cn2cnc3nc(N4CCCC4)ncc3c2=O)cc1` was 690 s; that for `Cc1cc(C)nc(NC(=O)NCCCSc2ccccn2)n1` was 671 s; that for `O=C(c1ccc2ncnc(N3CCCC3)c2c1)N1CCCCC1` was 577 s. As to `O=C(CCn1nnc2cc(S(=O)(=O)N3CCCC3)ccc21)N1CCN(c2ccccn2)CC1`, the RP-LC retention time is 602 s. With `Cc1cnc(-c2ccccc2C(C)C)nc1NCc1ccc(-n2ccnn2)cc1`, the RP-LC retention time stood at 770 s. The same measure for `CCOC(=O)c1noc2nc(C)nc(N3CCN(c4ccc(Cl)cc4)CC3)c12`: 1190 s; for `O=C(CSc1nnc2sc3ccccc3n12)c1ccc(F)cc1`: 778 s; for `O=C(NCc1nc(-c2ccc(Cl)cc2)no1)NC1CCCCC1`: 916 s. The value for `CCN1CCn2c(nc3cc(C(=O)NCc4ccc(Br)cc4)ccc32)C1=O` was 704 s; that for `CC(C)NC(=O)N1CC(c2nc(-c3ccc(F)cc3)no2)C2(CCOCC2)C1` (centres undefined) was 815 s. In turn, `CCOc1cc2c(cc1OCC)C1C(C(=O)NCc3ccc(C)o3)c3ccccc3C(=O)N1CC2` (centres undefined) yielded an RP-LC retention time of 894 s. The value for `Cc1oc(C2CCN(C(=O)Cc3c(F)cccc3Cl)CC2)nc1C(=O)N(C)C` was 747 s; that for `CCOC(=O)c1ccc(S(=O)(=O)NCCCn2nc(-c3ccncc3)ccc2=O)cc1` was 592 s; that for `CC(C)S(=O)(=O)N1CC(Oc2ccccc2-c2nc(C3CC3)no2)C1` was 984 s. The value for `O=C(c1ccc(-c2ccnc(N3CCCCC3)n2)cc1)N1CCC2(CC1)OCCO2` was 882 s; that for `Cc1ccc(CNC(=O)CN2C(=O)C3CCCCN3c3ccc(S(=O)(=O)N(C)C)cc32)cc1` (centres undefined) was 922 s. The same measure for `Cc1ccc2c(Nc3ccc(F)c(C#N)c3)c(C(=O)N3CCC(C)CC3)cnc2n1`: 603 s; for `O=C(Nc1ccc(-c2nnc3n2CCCC3)cc1)c1ccc2c(c1)OCO2`: 661 s; for `Cc1cc(C)c(NS(=O)(=O)c2cc(-c3cc(C(F)(F)F)on3)sc2C)c(C)c1`: 1230 s. Take `CC1CCN(c2ncc3c(n2)CCC(C(=O)NCCC2=CCCCC2)C3)CC1` (centres undefined): the RP-LC retention time was found to be 974 s.

In turn, `COc1ccccc1C(=O)N1CCCC1COc1ccc(C(=O)NC2CC2)cc1` (centres undefined) displayed an RP-LC retention time of 759 s.

Compound `Cc1ccc(-c2cc3c(=O)n(Cc4noc(CN5CCC(C)CC5)n4)ccn3n2)cc1C` displayed an RP-LC retention time of 742 s. The same measure for `O=C(CSc1ccc(-c2ccc(-n3ccnc3)cc2)nn1)NCc1ccco1`: 554 s; for `COc1ccccc1-c1noc(CN2C(=O)C(C)Oc3ccccc32)n1` (centres undefined): 944 s. The value for `Cc1ccc(-c2cn3cccnc3n2)cc1NC(=O)c1ccccc1Br` was 682 s; that for `CN(C)C(CNC(=O)C1(c2cccs2)CCCC1)c1ccsc1` (centres undefined) was 596 s; that for `COCC(=O)N1CCCN(c2cc(=O)n(C(C)C)c(=O)n2C(C)C)CC1` was 678 s. The value for `Cc1cccc(N2CCN(C(=S)Nc3ccc4nc(N5CCN(C)CC5)cc(C)c4c3)CC2)c1C` was 655 s; that for `Cc1noc(C)c1CN1CCN(C(=O)NCc2cccc(F)c2)CC1` was 599 s; that for `Nc1cccc(C(=O)CC2(O)C(=O)Nc3ccc(Cl)cc32)c1` (centres undefined) was 627 s. In turn, `O=c1c2ncccc2n(Cc2c(F)cccc2Cl)c(=O)n1Cc1cccnc1` returned an RP-LC retention time of 852 s.

For the compound `CCCCC(=O)Nc1cnc(N2CCNCC2)c(C(=O)N2CCCC2)c1`, the RP-LC retention time was 595 s. `CCN(Cc1ccc(F)cc1)Cc1cc(=O)n2cc(Cl)ccc2n1` gave an RP-LC retention time of 578 s. The value for `O=C(Cn1cnc2nc3c(cc2c1=O)CCCC3)Nc1cccc(F)c1` was 721 s; that for `CCCn1cc(CCNC(=O)c2cncc(Br)c2)c2cccnc21` was 723 s; that for `Cc1ccc(CNC(=O)N2CCC(N3CCN(Cc4ccccc4)C(=O)C3=O)CC2)cc1` was 768 s. In turn, `O=C(c1cnccn1)N1C[C@@H](COCC2CC2)[C@H](c2ccncc2)C1` came in with an RP-LC retention time of 563 s. The value for `CCC(=O)Nc1ccc(-n2cnc(C(=O)N3CCN(c4ccc(OC)cc4)CC3)c2)nc1` was 653 s. The same measure for `O=S(=O)(NCc1ccco1)c1cccc(-c2nc(-c3ccccc3)no2)c1`: 1050 s.
